Assay results reported in publication PMC11995724, “Antibiotic target discovery by integrated phenotypic and activity-based profiling of electrophilic fragments” (Cell chemical biology, 2025).

Experiment: in vitro
Conditions: human, hek293t cells

Compound	viability at 48 h, 25 µM
O=C(CCl)Nc1ccccc1Sc1ccc(Cl)cc1 [4-O13, 2-chloro-N-{2-[(4-chlorophenyl)sulfanyl]phenyl}acetamide]	0.318%
CC(NC(=O)C(C#N)=Cc1ccc(C(F)(F)F)cc1)c1ccccc1 (centres unmarked) [9-L21, 2-cyano-N-(1-phenylethyl)-3-[4-(trifluoromethyl)phenyl]prop-2-enamide]	2.11%
O=C1C=CC(=O)N1c1ccc(OC(F)F)cc1 [10-P11, 1-[4-(difluoromethoxy)phenyl]-2,5-dihydro-1H-pyrrole-2,5-dione]	102%
C=CC(=O)NC1CC(CC(F)(F)F)C1 (centres unmarked) [2-F09, N-[3-(2,2,2-trifluoroethyl)cyclobutyl]prop-2-enamide]	65.5%
C=CC(=O)N(Cc1cc(-c2ccco2)n(C)n1)C1CCCCC1 [1-J15, N-cyclohexyl-N-{[5-(furan-2-yl)-1-methyl-1H-pyrazol-3-yl]methyl}prop-2-enamide]	83.8%
COc1ccc(C(=O)C(C)Cl)c(OC)c1 (centres unmarked) [10-J17, 2-chloro-1-(2,4-dimethoxyphenyl)propan-1-one]	91.9%
CCOc1ccc(-n2c(C)cc(C(=O)CCl)c2C)cc1 [10-K08, 2-chloro-1-[1-(4-ethoxyphenyl)-2,5-dimethyl-1H-pyrrol-3-yl]ethan-1-one]	0.112%
CC(C1CC1)N(CC(F)(F)F)C(=O)CCl (centres unmarked) [5-P08, 2-chloro-N-(1-cyclopropylethyl)-N-(2,2,2-trifluoroethyl)acetamide]	90.7%
C=CC(=O)NC(CO)c1nc(C)no1 (centres unmarked) [1-C05, N-[2-hydroxy-1-(3-methyl-1,2,4-oxadiazol-5-yl)ethyl]prop-2-enamide]	71.4%
Cc1cc(C(=O)CCl)c(C)n1CCc1ccccc1 [10-B18, 2-chloro-1-[2,5-dimethyl-1-(2-phenylethyl)-1H-pyrrol-3-yl]ethan-1-one]	0.0262%
CC(Cl)C(=O)NCC(=O)Nc1ccc(F)c(F)c1F (centres unmarked) [4-D20, 2-chloro-N-{[(2,3,4-trifluorophenyl)carbamoyl]methyl}propanamide]	118%
COc1ccc(C2CCCN2C(=O)CCl)c(OC)c1 (centres unmarked) [4-P22, 2-chloro-1-[2-(2,4-dimethoxyphenyl)pyrrolidin-1-yl]ethan-1-one]	0.348%
CC(=O)NCc1ccc(C(=O)CCl)o1 [10-I10, N-{[5-(2-chloroacetyl)furan-2-yl]methyl}acetamide]	86.8%
Cc1cc(C(=O)CCl)c(C)n1CCc1ccc(Cl)cc1 [10-N16, 2-chloro-1-{1-[2-(4-chlorophenyl)ethyl]-2,5-dimethyl-1H-pyrrol-3-yl}ethan-1-one]	0.625%
N#CC(=Cc1cccnc1)C(=O)Nc1cccc2ccccc12 [8-L17, 2-cyano-N-(naphthalen-1-yl)-3-(pyridin-3-yl)prop-2-enamide]	110%
CC(Cl)C(=O)N1CCC(Cc2ccccc2)CC1 (centres unmarked) [5-K21, 1-(4-benzylpiperidin-1-yl)-2-chloropropan-1-one]	86.2%
CN(C)c1ccc(C=C(C#N)C(N)=O)cc1 [9-O04, 2-cyano-3-[4-(dimethylamino)phenyl]prop-2-enamide]	118%
O=C(CCl)NCC1CN(Cc2ccccc2)CCO1 (centres unmarked) [4-H18, N-[(4-benzylmorpholin-2-yl)methyl]-2-chloroacetamide]	87.2%
N#CC(=Cc1ccc(Cl)cc1)C(N)=O [8-L21, 3-(4-chlorophenyl)-2-cyanoprop-2-enamide]	112%

Compound	viability at 48 h, 25 µM
CCN(Cc1ccc(C#N)cc1F)C(=O)CCl [5-H08, 2-chloro-N-[(4-cyano-2-fluorophenyl)methyl]-N-ethylacetamide]	0.591%
C=CC(=O)N1CCC(NC(=O)c2oc(C)cc2C)CC1 [2-K17, 3,5-dimethyl-N-[1-(prop-2-enoyl)piperidin-4-yl]furan-2-carboxamide]	79.7%
C=CC(=O)Nc1cccc(NS(=O)(=O)C2CC2)c1 [3-D16, N-(3-cyclopropanesulfonamidophenyl)prop-2-enamide]	80.5%
O=C(CCl)NC1CCCN(c2cc(N3CCOCC3)ncn2)C1 (centres unmarked) [4-N21, 2-chloro-N-{1-[6-(morpholin-4-yl)pyrimidin-4-yl]piperidin-3-yl}acetamide]	4.92%
C=CC(=O)NC(C)c1ccc(-n2nc(C)cc2C)c(F)c1 (centres unmarked) [3-P17, N-{1-[4-(3,5-dimethyl-1H-pyrazol-1-yl)-3-fluorophenyl]ethyl}prop-2-enamide]	76.1%
O=C(CCl)Nc1ccc(Cl)c(S(=O)(=O)N2CCOCC2)c1 [6-K13, 2-chloro-N-[4-chloro-3-(morpholine-4-sulfonyl)phenyl]acetamide]	0.541%
O=C(CCl)Nc1ccc(Cl)c(C(F)(F)F)c1 [4-I09, 2-chloro-N-[4-chloro-3-(trifluoromethyl)phenyl]acetamide]	0.299%
O=C(CCl)Nc1ccc(Cl)c(S(=O)(=O)N2CCCCC2)c1 [4-P14, 2-chloro-N-[4-chloro-3-(piperidine-1-sulfonyl)phenyl]acetamide]	-0.167%
CCc1ccc(NC(=O)C(C#N)=Cc2cccn2C)cc1 [8-A20, 2-cyano-N-(4-ethylphenyl)-3-(1-methyl-1H-pyrrol-2-yl)prop-2-enamide]	58.7%
C=CC(=O)NC(CO)c1cccc(OC)c1 (centres unmarked) [2-E22, N-[2-hydroxy-1-(3-methoxyphenyl)ethyl]prop-2-enamide]	122%
Cc1cc(CO[C@H]2CC[C@H](NC(=O)CCl)CC2)on1 [6-K19, 2-chloro-N-[(1r,4r)-4-[(3-methyl-1,2-oxazol-5-yl)methoxy]cyclohexyl]acetamide]	88.1%
C=CC(=O)N1CCC(C(=O)Nc2nnc(CC)s2)CC1 [2-M10, N-(5-ethyl-1,3,4-thiadiazol-2-yl)-1-(prop-2-enoyl)piperidine-4-carboxamide]	98.8%
O=C(CCl)N1CCN(C(=O)CC(F)(F)F)CC1 [5-A08, 1-[4-(2-chloroacetyl)piperazin-1-yl]-3,3,3-trifluoropropan-1-one]	0.522%
Cc1cccc(CN(C(=O)CCl)C(C)C)c1 [6-J05, 2-chloro-N-[(3-methylphenyl)methyl]-N-(propan-2-yl)acetamide]	0.679%
C=CC(=O)N1CCC(C(=O)N2CC=CCC2)(c2ccccc2)CC1 [3-J06, 1-[4-phenyl-4-(1,2,3,6-tetrahydropyridine-1-carbonyl)piperidin-1-yl]prop-2-en-1-one]	61.7%
CC(Cl)C(=O)N1CCN(Cc2ccc3ccccc3n2)CC1 (centres unmarked) [7-A15, 2-chloro-1-{4-[(quinolin-2-yl)methyl]piperazin-1-yl}propan-1-one]	83.2%
Cc1ccc(C)c(NC(=O)C(C#N)=Cc2cccn2C)c1 [8-M07, 2-cyano-N-(2,5-dimethylphenyl)-3-(1-methyl-1H-pyrrol-2-yl)prop-2-enamide]	87.8%
Cc1ccc(NC(=O)CCl)cc1S(=O)(=O)N(C)C [4-A09, 2-chloro-N-[3-(dimethylsulfamoyl)-4-methylphenyl]acetamide]	-0.165%
C=CC(=O)Nc1ccc(C(=O)NC2CCN(S(C)(=O)=O)CC2)cc1 [2-M21, N-(1-methanesulfonylpiperidin-4-yl)-4-(prop-2-enamido)benzamide]	90.2%
